Laboratory results as given in US11083725B2 (priority 2014, dated 2021).

System: NHBE cells
Assay: Biolog metabolic array: substrate use by NHBE cells with or without CA09 infection
Type: cell-based, human
[1] = Control (uninfected) NHBE cells
[2] = Virus (CA09-infected NHBE cells, MOI 1)
[3] = Virus: CA09-infected NHBE cells, MOI 1, Biolog PMM2

SMILES: CCCCCC(=O)O [Hexanoic Acid]
- 590 nm absorbance normalized to zero hour (substrate use), 1 hr [1]: 1.35
- 590 nm absorbance normalized to zero hour (substrate use), 2 hr [1]: 1.47
- 590 nm absorbance normalized to zero hour (substrate use), 3 hr [1]: 2.74
- 590 nm absorbance normalized to zero hour (substrate use), 4 hr [1]: 2.80
- 590 nm absorbance normalized to zero hour (substrate use), 6 hr [1]: 1.04
- 590 nm absorbance normalized to zero hour (substrate use), 8 hr [1]: 4.11
- 590 nm absorbance normalized to zero hour (substrate use), 9 hr [1]: 4.10
- 590 nm absorbance normalized to zero hour (substrate use), 10 hr [1]: 4.13
- 590 nm absorbance normalized to zero hour (substrate use), 11 hr [1]: 3.16
- Substrate use, 590 nm absorbance normalized to zero hour, 1 hr (Control (uninfected) NHBE cells, Biolog PMM2, 1 hr): 1.35
- Substrate use, 590 nm absorbance normalized to zero hour, 5 hr (Control (uninfected) NHBE cells, Biolog PMM2, 5 hr): 1.18
- Substrate use, 590 nm absorbance normalized to zero hour, 7 hr (Control (uninfected) NHBE cells, Biolog PMM2, 7 hr): 4.15
- 590 nm absorbance normalized to zero hour (substrate use), 1 hr [2]: 0.25
- 590 nm absorbance normalized to zero hour (substrate use), 2 hr [2]: 0.28
- 590 nm absorbance normalized to zero hour (substrate use), 3 hr [2]: 0.31
- 590 nm absorbance normalized to zero hour (substrate use), 4 hr [2]: 0.33
- 590 nm absorbance normalized to zero hour (substrate use), 5 hr [2]: 0.36
- 590 nm absorbance normalized to zero hour (substrate use), 6 hr [2]: 0.37
- 590 nm absorbance normalized to zero hour (substrate use), 7 hr [2]: 0.37
- 590 nm absorbance normalized to zero hour (substrate use), 8 hr [2]: 0.38
- 590 nm absorbance normalized to zero hour (substrate use), 9 hr [2]: 0.36
- 590 nm absorbance normalized to zero hour (substrate use), 10 hr [2]: 0.40
- 590 nm absorbance normalized to zero hour (substrate use), 11 hr [2]: 0.41
- 590 nm absorbance normalized to zero hour (substrate use), 1 hr [3]: 0.25
- 590 nm absorbance normalized to zero hour (substrate use), 2 hr [3]: 0.28
- 590 nm absorbance normalized to zero hour (substrate use), 3 hr [3]: 0.31
- 590 nm absorbance normalized to zero hour (substrate use), 4 hr [3]: 0.33
- 590 nm absorbance normalized to zero hour (substrate use), 5 hr [3]: 0.36
- 590 nm absorbance normalized to zero hour (substrate use), 6 hr [3]: 0.37
- 590 nm absorbance normalized to zero hour (substrate use), 7 hr [3]: 0.37
- 590 nm absorbance normalized to zero hour (substrate use), 8 hr [3]: 0.38
- 590 nm absorbance normalized to zero hour (substrate use), 9 hr [3]: 0.36
- 590 nm absorbance normalized to zero hour (substrate use), 10 hr [3]: 0.40
- 590 nm absorbance normalized to zero hour (substrate use), 11 hr [3]: 0.41
